# No end group written: not given here.
# Tests used:
# [1] = test system: primary pig anterior pituitary cells; assay: GH release from primary pig anterior pituitary culture challenged with conditioned media; format: cell-based; conditions: 24 h stimulation at 37 C; media from 1 million primary pig myoblasts or media mixed with 10 ng synthetic peptide
# Experimental: Primary pig myoblasts culture was obtained as described (Doumit & Merkel, 1992, Tissue & Cell 24:253-262). The cells were plated at a density of 1 million cells/100 mm plate and maintained in growth media for 2-3 days. The cells were passed for 2 times prior to transfection. The transfection and differentiation was made in the same conditions as for the primary chicken myoblast culture. The media and cells were harvested for analysis 48, 72 and 96 h postdifferentiation in both cases. The efficiency of transfection estimated by β-galactosidase histochemistry on control plates was 10%.
# One day before harvesting, cells were washed twice in HBSS and changed in MEM, 0.1% BSA. The collected media was conditioned by adding ¼ volumes of 1% triflouroacetic acid (TFA) and 0.001% phenylmethylsulfonylflouride (PMSF), frozen at −80° C., lyophilized, purified on C-18 Sep-Columns (Peninsula Laboratories, CA, USA), relyophilized and used in RIA or resuspended in media conditioned for primary pig anterior pituitary culture. […]
# B. In vitro activity of pSK-GHRH. Since anterior pituitary is the natural target of GHRH stimulation, we determined the biological activity of secreted GHRH from the media of pSK-GHRH transfected primary pig myoblasts (FIG. 8). […]
# [2] = cited from earlier work
# [3] = test system: GH release; conditions: synthetic molecules, Ling et al 1984; cited from earlier work
substance,measurement,setting,value
"hGHRH (1-44)NH2: synthetic amidated human growth hormone releasing hormone (1-44) (YADAIFTNSYRKVLGQLSARKLLQDIMSRQQGESNQERGARARL-NH2; UniProt P01286 32-75, looked up)",GH release,[1],115 ± 3.2 ng/mL
hGHRH(1-40)OH: Human 1-40 OH growth hormone releasing hormone (YADAIFTNSYRKVLGQLSARKLLQDIMSRQQGESNQERGA-OH),potency in vivo relative to hGHRH(1-44)NH2,[2],same potency in vivo as hGHRH(1-44)NH2
"hGHRH(1-44)OH: non-amidated human GHRH (1-44), Tyr1 to Leu44; the molecule expressed by pSK-GHRH (YADAIFTNSYRKVLGQLSARKLLQDIMSRQQGESNQERGARARL-OH; UniProt P01286 32-75, looked up)",less effective in releasing GH than the (1-44) amidated form,[3],30%

# Reference: patent US6423693B1, “Growth hormone releasing hormone expression system and methods of use, including use in animals” (Baylor College of Medicine, priority 1997, dated 2002)
